Test results taken from US20030175366A1, “Plant Extracts and Methods of Treating Skin Therewith” (priority 2000, published 2003).

Legend:
[1] = tested on: glucose-6-phosphate dehydrogenase in human fibroblasts; assay: G6PDH activity in human fibroblasts (in vitro determination of the enzymatic activity); type: cell-based; settings: control = 100; for G6PDH activity after 3 days: 3 days incubation
Protocol: The G6PDH activity was determined in accordance with the microprocess described by Garidelli de Quincenet in Annual Dermatol. Venereol. 107(12), 1163-1170 (1980). The G6PDH activity was determined in accordance with the process described by Natsuko Okada and Yukio Kitano in: Arch. Dermatol. Res., 271(3): 341-346, 1981 by in vitro determination of the enzymatic activity of the glucose-6-phosphate dehydrogenase in human fibroblasts.
(§1) The DNA content was determined in accordance with the method described by Desaulniers in Toxic. In vitro 12(4), 409-422 (1998). The incubation time of the fibroblasts was in each case 3 days and 6 days. In each case, the average of 4 experiments with triple determination is given.

human fibroblasts = assay: DNA content of the fibroblasts; type: cell-based; settings: control = 100; for DNA content after 3 days: 3 days incubation
Protocol: as §1

[2] = conc. 0.00003 % by wt., 6 days incubation

| SMILES | G6PDH activity after 3 days ([1]; conc. 0.005 % by wt.) [rel-%] | DNA content after 3 days (human fibroblasts; conc. 0.005 % by wt.) [rel-%] | G6PDH activity after 3 days ([1]; conc. 0.00003 % by wt.) [rel-%] | G6PDH activity after 6 days [1, 2] [rel-%] | DNA content after 3 days (human fibroblasts; conc. 0.00003 % by wt.) [rel-%] | DNA content after 6 days (human fibroblasts; [2]) [rel-%] |
| --- | --- | --- | --- | --- | --- | --- |
| CC1=C(/C=C/C(C)=C/C=C/C(C)=C/CO)C(C)(C)CCC1 [Retinol] | 400 | 95 | – | – | – | – |
| COc1cc2c(cc1O)C[C@H]1c3c(cc(O)c(OC)c3-2)CCN1C [Boldin index B3916 (Sigma), Boldin] | 200 | 97 | – | – | – | – |
| CC1=C(/C=C/C(C)=C/C=C/C(C)=C/C(=O)O)C(C)(C)CCC1 [Retinoic acid] | – | – | 134 | 130 | 76 | 98 |
